Assays:
[1] = tested on: HCT116; test: Cytotoxicity, sulforhodamine B (SRB) assay, HCT116; format: cell-based, human; details: Homo sapiens, HCT-116, HCT116, Colon, 48 h
Excerpt: (§1) Human non-small cell lung cancer (NSCLC) cell lines (e.g., A549, H441GL and H1299), colon cancer cell lines (e.g., HCT116 and DLD1), breast cancer cell lines (e.g., MCF7 and MDA-MB-231), and pancreatic cancer cell lines (e.g., PANC-1 and SUIT-2) were used in cytotoxicity studies. These NSCLC cell lines have intrinsic resistance to epidermal growth factor receptor (EGFR) inhibitors, e.g., gefitinib. A549 and H441GL are EGFR-wild type adenocarcinoma cell lines. H1299 is an EGFR-wild type large cell carcinoma cell line. HCT116 and DLD1 are metastatic colon cell lines. MCF7 is a hormone-responsive breast cancer cell line. MDA-MB-231 is a triple-negative breast cancer cell line. PANC-1 is a metastatic adenocarcinoma cell line. SUIT-2 is a pancreatic ductal adenocarcinoma cell line.
(§2) All cell lines were grown and maintained in RPMI medium supplemented with 10% fetal bovine serum (FBS, Invitrogen), 2 mM L-glutamine, 100 U/mL penicillin, and 100 μg/mL streptomycin. For cell the culture experiment, stock solution (10 mM) of each test compound was dissolved in dimethyl sulfoxide (DMSO; Sigma).
(§3) Cells were plated in 96-well plates at a density of 2000 cells per well in triplicate. The cells in each well were treated on the third day (to ensure proper plating efficiency and vitality) with different concentrations (0-50 μM) of each test compound for 48 h.
(§4) Cell viability was assessed using the sulforhodamine B (SRB) assay. The medium was discarded, and the adherent cells were fixed by 100 μL of cold 10% trichloroacetic acid (w/v) in each well for 1 h at 4° C. After fixation, cells were stained with 100 μL/well of 0.4% (w/v, in 1% acetic acid) SRB solution for 30 min at room temperature, and then washed 5 times with 1% acetic acid. After air-drying, 100 μL of 10 mM Tris base was added to each well and the absorbance was read at 530 nm. Cytotoxicity is expressed as the percent of cells in drug treated wells relative to number of cells in the solvent only control (set to 100%). Each experiment was performed independently in triplicate and cytotoxicity IC50 value of each test compound was calculated from cytotoxicity data obtained at various concentrations.

[2] = tested on: DLD1; test: Cytotoxicity, sulforhodamine B (SRB) assay, DLD1; format: cell-based, human; details: Homo sapiens, DLD-1, DLD1, Colon, 48 h
Excerpt: as §1, §2, §3, §4

[3] = tested on: A549; test: Cytotoxicity, sulforhodamine B (SRB) assay, A549; format: cell-based, Human; details: Homo sapiens, A549, 48 h, NA indicates no activity
Excerpt: as §1, with “These NSCLC cell lines have intrinsic resistance to epidermal growth factor receptor (EGFR) inhibitors, e.g., gefitinib.” left out
as §2, §3, §4

[4] = tested on: H441GL cells; test: Study 2: tumor size in mouse lung cancer model; format: in vivo, NOD/SCID mice; details: Study 2, 0.0127 mmol/kg daily, i.p.; for Tumor Size [Fold Change from Week 3 (Mean ± SD, n = 4)] Week 3: Week 3 (baseline, start of treatment)
Procedure: H441GL cells (1×10^6 cells in 100 μL phosphate-buffered saline/injection) were subcutaneously injected into the right flank of NOD/SCID mice (female, 4-6 weeks old). Mice were allowed 2 weeks for tumor growth. On the first day of Week 3 post injection, tumor-bearing mice were randomly divided into control group (DMSO vehicle, intraperitoneal (i.p.) injection) and test compound treatment groups (5 mg/kg/day, 5 days/week, i.p. injection). Over the period of 10 weeks, tumorigenesis in both groups was measured using a caliper on a weekly basis. The change in tumor size was expressed as in fold change from Week 3. In this study body weight of each mouse was also recorded at the end of each study week.
In this study, the daily dose was 0.0127 mmol/kg instead of 5 mg/kg.

[5] = tested on: H441GL; test: Cytotoxicity, sulforhodamine B (SRB) assay, H441GL; format: cell-based, Human; details: Homo sapiens, 48 h, NA indicates no activity
Excerpt: as §1, with “These NSCLC cell lines have intrinsic resistance to epidermal growth factor receptor (EGFR) inhibitors, e.g., gefitinib.” left out
as §2, §3, §4

[6] = tested on: PANC-1; test: Cytotoxicity, sulforhodamine B (SRB) assay, PANC-1; format: cell-based, human; details: Homo sapiens, PANC-1, Pancreas, 48 h, NA = no activity
Excerpt: as §1, §2, §3, §4

[7] = tested on: MDA-MB-231; test: Cytotoxicity, sulforhodamine B (SRB) assay, MDA-MB-231; format: cell-based, human; details: Homo sapiens, MDA-MB-231, Breast, 48 h
Excerpt: as §1, §2, §3, §4

[8] = tested on: lung cancer cells; test: Cytotoxicity SRB assay, summary of Table 2; format: cell-based, Human; details: summary in words of Table 2
Excerpt: as §1, §3, §4
NA indicates no activity.

[9] = tested on: H1299; test: Cytotoxicity, sulforhodamine B (SRB) assay, H1299; format: cell-based; details: Homo sapiens, NCI-H1299, H1299, 48 h
Excerpt: as §1, with “These NSCLC cell lines have intrinsic resistance to epidermal growth factor receptor (EGFR) inhibitors, e.g., gefitinib.” left out
as §2, §3, §4

[10] = tested on: MCF7; test: Cytotoxicity, sulforhodamine B (SRB) assay, MCF7; format: cell-based, human; details: Homo sapiens, MCF7, Breast, 48 h
Excerpt: as §1, §2, §3, §4

[11] = tested on: SUIT-2; test: Cytotoxicity, sulforhodamine B (SRB) assay, SUIT-2; format: cell-based, human; details: Homo sapiens, SUIT-2, Pancreas, 48 h
Excerpt: as §1, §2, §3, §4

| SMILES | IC50 [1] [µM] | IC50 [2] [µM] | IC50 [3] [µM] | Tumor Size [Fold Change from Week 3 (Mean ± SD, n = 4)] Week 3 [4] [Fold Change] | Tumor Size [Fold Change from Week 3 (Mean ± SD, n = 4)] Week 9 [4] [Fold Change] | Tumor Size [Fold Change from Week 3 (Mean ± SD, n = 4)] Week 13 [4] [Fold Change] | IC50 [5] [µM] | IC50 [6] [µM] | IC50 [7] [µM] | inhibition of cell proliferation of lung cancer cells [8] | IC50 [9] [µM] | IC50 [10] [µM] | IC50 [11] [µM] |
| --- | --- | --- | --- | --- | --- | --- | --- | --- | --- | --- | --- | --- | --- |
| COCC(COCC(COCC(COCCOCCOCCN1CCN(CCCN2c3ccccc3Sc3ccc(C(F)(F)F)cc32)CC1)OC)OC)OC (stereo not shown) [Compound 25-1b, NDT-[CH2CH2O]n—[CH2CH(OCH3)CH2O]3—CH3] | 7.2 | 11.7 | 11.4 | 1 ± 0 | 10.2 ± 1.4 | 25.0 ± 4.4 | 8.8 | 10 | 11.2 | inhibit cell proliferation | 6.9 | 12.2 | 10.9 |
| COCC(COCC(COCC(COCCOCCOCCOCCOCCOCCOCCOCCOCCN1CCN(CCCN2c3ccccc3Sc3ccc(C(F)(F)F)cc32)CC1)OC)OC)OC (stereo not shown) [Compound 25-2b, NDT-[CH2CH2O]n—[CH2CH(OCH3)CH2O]3—CH3] | 11.4 | 15.3 | 14 | 1 ± 0 | 13.0 ± 1.6 | 35.7 ± 5.3 | 11.4 | 2.9 | 13.1 | inhibit cell proliferation | 13.9 | 10.9 | 13 |
| COCCOCCOCCOCC(COCC(COCC(CN1CCN(CCCN2c3ccccc3Sc3ccc(Cl)cc32)CC1)OC)OC)OC (stereo not shown) [Compound 26-1a, NDP-[CH2CH(OCH3)CH2O]3—[CH2CH2O]n—CH3] | 11.2 | 22.3 | 11.2 | – | – | – | 12.1 | 15.8 | 13.5 | inhibit cell proliferation | 24.9 | 14.6 | 25.8 |
| COCCOCCOCCOCCOCCOCCOCCOCCOCCOCC(COCC(COCC(CN1CCN(CCCN2c3ccccc3Sc3ccc(Cl)cc32)CC1)OC)OC)OC (stereo not shown) [Compound 26-2a, NDP-[CH2CH(OCH3)CH2O]3—[CH2CH2O]n—CH3] | 13.3 | 32.8 | 23.8 | – | – | – | 25.4 | 27.9 | 16.3 | inhibit cell proliferation | 42.6 | 24.2 | 26.9 |
| COCCOCCOCCOCCOCCOCCOCCOCCOCCOCC(COCC(COCC(CN1CCN(CCCN2c3ccccc3Sc3ccc(C(F)(F)F)cc32)CC1)OC)OC)OC (stereo not shown) [Compound 26-2b, NDT-[CH2CH(OCH3)CH2O]3—[CH2CH2O]n—CH3] | 8.9 | 19.2 | 15.6 | – | – | – | 12.1 | 12.9 | 12.5 | inhibit cell proliferation | 25.3 | 10 | 17.2 |
| OCC(O)COCC(O)COCC(O)CN1CCN(CCCN2c3ccccc3Sc3ccc(Cl)cc32)CC1 (stereo not shown) [Compound 33a, NDP-[CH2CH(OH)CH2O]3—H] | 20.2 | 35.2 | 35.2 | – | – | – | 25 | 30.2 | 24.2 | inhibit cell proliferation | 28.4 | 26 | 34 |
| OCC(O)COCC(O)COCC(O)CN1CCN(CCCN2c3ccccc3Sc3ccc(C(F)(F)F)cc32)CC1 (stereo not shown) [Compound 33b, NDT-[CH2CH(OH)CH2O]3—H] | 14.9 | 26.4 | 19.8 | – | – | – | 17.9 | 23.5 | 14.8 | inhibit cell proliferation | 20.8 | 13.8 | 25.7 |
